Reference: publication PMC9488896, “Hydroxamic Acid-Modified Peptide Library Provides Insights into the Molecular Basis for the Substrate Selectivity of HDAC Corepressor Complexes” (ACS Chemical Biology, 2022)
Read-outs that look alike come from different tables or passages of the source. Blank lines part the entries; values can stand above or below the molecule they belong to. Residues, ends and D or L forms follow the SMILES beside them. No end group written: not given here.

Key:
Assay type in all cases: biochemical
[1] = molecular target: T1, HDAC1/MTA1(aa: 162–546)/RBBP4 core NuRD complex (HMR) (Homo sapiens, UniProt Q09028+Q13330+Q13547); assay: Boc-Lys HDAC inhibition assay; conditions: 50 nM complex, 20 min preincubation rt, 100 μM Boc-(Ac)Lys-AMC, 37 °C 30 min, technical replicates N = 2
T1 construct: made in house; host or cells: HEK293F
Protocol: (§1) Inhibition assays with various peptide inhibitors were performed using a fluorescence-based assay. The inhibitor peptides were initially dissolved in 5% dimethyl sulfoxide (DMSO) at a stock concentration of 25 mM before being further diluted in the HDAC assay buffer (50 mM Tris/HCl, pH 7.5, 150 mM NaCl). Serial dilutions (1:3) of the inhibitor were prepared, starting at a concentration of 500 μM. HDAC complexes were diluted to a final concentration of 50 nM and incubated with the inhibitor for 20 min at rt. The Boc-(Ac)Lys-AMC substrate was added at a final concentration of 100 μM The final volume of the reaction was 50 μL. The reaction was incubated at 37 °C, 150 rpm, for 30 min, before a developer (50 mM Tris, pH 7.5, 100 mM NaCl, 10 mg/mL trypsin) was added. The reaction was incubated with the developer for 10 min before being measured (PerkinElmer, 2030 multilabel reader, VICTOR X5, excitation 335 nm, emission 460 nm). The absorbance of the buffer as the blank control was subtracted from the HDAC activity, and IC50 calculations were performed using the nonlinear regression log(inhibitor) vs response equation Y = bottom + (top – bottom)/(1+10^(X–Log IC50)) in Graphpad Prism 9.

[2] = molecular target: T1, HDAC1/MTA1(aa: 162–546)/RBBP4 core NuRD complex (HMR); assay: Caliper deacetylation assay (rate-of-turnover of substrate peptides); conditions: 125 nM HMR, 2 μM peptide; for Initial Rate of HMR against histone peptides: Rate (% conversion min-1): 50 mM Tris/HCl pH 7.5, 50 mM NaCl, 5% glycerol, linear fit of first 8 min, Caliper EZ Reader II, technical replicates N = 2
Protocol: The acetyl-lysine-containing library (compounds 1–8) was assessed for the initial rate at which they were deacetylated by the HMR complex (Figure 2A).
Reactions (30 μL) contained 125 nM HMR and 2 μM fluorescein-labeled peptides (peptides 1–8) in 50 mM Tris/HCl, pH 7.5, 50 mM NaCl, and 5% glycerol. The deacetylase reaction was recorded over a 30 min period, every 90 s, using a Caliper EZ Reader II System (Caliper Life Sciences, http://www.caliperls.com). The initial rates were calculated using the formula Y = Y-intercept + slope × X during the first 8 min of the reaction using GraphPad Prism 9.

CoREST complex = molecular target: T2, CoREST complex (Homo sapiens, UniProt Q13547+Q9UKL0); assay: Boc-Lys HDAC inhibition assay; conditions: HDAC complexes tables; 50 nM complex, 100 μM Boc-(Ac)Lys-AMC, 37 °C 30 min; technical replicates N = 2
T2 construct: made in house; host or cells: HEK293F
From the text: (§2) Finally, we directed our attention toward assessing how the results from the experiments with HMR would be common to the other known class I HDAC corepressor complexes. RERE, MIER1, CoREST, HMR, MiDAC, Sin3A, and SMRT were expressed and purified, and the concentrations were normalized based on the concentration of HDAC1 or HDAC3 (Figure 4A). We determined the potency of H3(23–29)K27Hd 12 and H4(12–18)K16Hd 16 against RERE, MIER1, CoREST, NuRD, MiDAC, Sin3A, and SMRT (Figure 4B). In addition, we repeated the H3(23–29)K27Hd alanine scan experiment for each of these complexes to assess whether or not the importance of Lys23 for maintaining potency against HMR was replicated across the other complexes (Figure 4C).
as §1

MIER1 complex = molecular target: T3, MIER1 complex (Homo sapiens, UniProt Q13547+Q8N108); assay: Boc-Lys HDAC inhibition assay; conditions: HDAC complexes tables; 50 nM complex, 100 μM Boc-(Ac)Lys-AMC, 37 °C 30 min; technical replicates N = 2
T3 construct: made in house; host or cells: HEK293F
From the text: as §2, §1

MiDAC complex = molecular target: T4, MiDAC complex (Homo sapiens, UniProt Q13547+Q6PJG2+Q9H147); assay: Boc-Lys HDAC inhibition assay; conditions: HDAC complexes tables; 50 nM complex, 100 μM Boc-(Ac)Lys-AMC, 37 °C 30 min; technical replicates N = 2
T4 construct: made in house; host or cells: HEK293F
From the text: as §2, §1

RERE complex = molecular target: T5, RERE complex (Homo sapiens, UniProt Q13547+Q9P2R6); assay: Boc-Lys HDAC inhibition assay; conditions: HDAC complexes tables; 50 nM complex, 100 μM Boc-(Ac)Lys-AMC, 37 °C 30 min; technical replicates N = 2
T5 construct: made in house; host or cells: HEK293F
From the text: as §2, §1

SMRT complex (HDAC3) = molecular target: T6, SMRT complex (HDAC3) (Homo sapiens, UniProt O15379); assay: Boc-Lys HDAC inhibition assay; conditions: HDAC complexes tables; 50 nM complex, 100 μM Boc-(Ac)Lys-AMC, 37 °C 30 min; technical replicates N = 2
T6 construct: made in house; host or cells: HEK293F
From the text: as §2, §1

Sin3A complex = molecular target: T7, Sin3A complex (Homo sapiens, UniProt Q13547); assay: Boc-Lys HDAC inhibition assay; conditions: HDAC complexes tables; 50 nM complex, 100 μM Boc-(Ac)Lys-AMC, 37 °C 30 min; technical replicates N = 2
T7 construct: made in house; host or cells: HEK293F
From the text: as §2, §1

[3] = inhibitor library experiment, fluorescence, read-out: IC50 of HMR against histone peptide library
[4] = alanine scan / H4K12Hd experiments, read-out: IC50 of HMR against H3 K27Hd, H4 K16Hd and H4K12Hd peptides

T1 sequence (Q13547 whole entry, species assumed): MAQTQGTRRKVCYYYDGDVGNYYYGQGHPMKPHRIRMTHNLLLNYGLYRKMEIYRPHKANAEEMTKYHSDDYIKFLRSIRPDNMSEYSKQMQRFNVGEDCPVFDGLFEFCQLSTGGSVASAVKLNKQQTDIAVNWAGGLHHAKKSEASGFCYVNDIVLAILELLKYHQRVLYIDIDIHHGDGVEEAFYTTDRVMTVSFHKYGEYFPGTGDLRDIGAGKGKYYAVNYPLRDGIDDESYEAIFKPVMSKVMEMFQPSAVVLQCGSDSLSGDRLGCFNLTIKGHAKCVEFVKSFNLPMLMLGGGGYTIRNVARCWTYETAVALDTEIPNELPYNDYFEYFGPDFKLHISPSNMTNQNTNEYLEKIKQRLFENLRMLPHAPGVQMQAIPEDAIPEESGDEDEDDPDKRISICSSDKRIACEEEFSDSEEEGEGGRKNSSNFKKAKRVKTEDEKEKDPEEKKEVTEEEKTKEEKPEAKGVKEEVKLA
T1 sequence (Q13330 162-546 partner limits assumed, species assumed): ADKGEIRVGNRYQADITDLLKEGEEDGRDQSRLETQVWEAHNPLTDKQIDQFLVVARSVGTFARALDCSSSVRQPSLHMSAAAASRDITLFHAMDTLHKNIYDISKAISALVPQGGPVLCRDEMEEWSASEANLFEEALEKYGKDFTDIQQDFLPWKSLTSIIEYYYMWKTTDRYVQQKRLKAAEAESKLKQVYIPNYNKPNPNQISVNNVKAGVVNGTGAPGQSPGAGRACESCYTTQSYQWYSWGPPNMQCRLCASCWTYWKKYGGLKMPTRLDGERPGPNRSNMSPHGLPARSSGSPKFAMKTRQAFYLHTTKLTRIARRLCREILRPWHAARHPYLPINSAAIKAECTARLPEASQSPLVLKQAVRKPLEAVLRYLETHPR
T1 sequence (Q09028 whole entry partner, species assumed): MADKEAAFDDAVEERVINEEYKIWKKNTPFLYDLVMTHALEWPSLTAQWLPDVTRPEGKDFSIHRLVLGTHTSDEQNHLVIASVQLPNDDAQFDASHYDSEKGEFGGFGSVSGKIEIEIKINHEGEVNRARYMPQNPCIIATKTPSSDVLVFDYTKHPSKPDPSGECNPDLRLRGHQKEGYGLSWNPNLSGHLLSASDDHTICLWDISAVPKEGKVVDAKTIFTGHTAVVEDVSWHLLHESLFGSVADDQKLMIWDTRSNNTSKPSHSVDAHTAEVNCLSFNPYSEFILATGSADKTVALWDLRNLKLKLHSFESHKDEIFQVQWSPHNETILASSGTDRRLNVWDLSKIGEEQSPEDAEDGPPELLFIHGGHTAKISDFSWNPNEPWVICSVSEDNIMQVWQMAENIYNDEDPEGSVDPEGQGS
T2 sequence (Q13547 whole entry, other chains not shown): as the sequence (Q13547 whole entry, species assumed) above
T2 sequence (Q9UKL0 86-485 partner limits assumed, other chains not shown): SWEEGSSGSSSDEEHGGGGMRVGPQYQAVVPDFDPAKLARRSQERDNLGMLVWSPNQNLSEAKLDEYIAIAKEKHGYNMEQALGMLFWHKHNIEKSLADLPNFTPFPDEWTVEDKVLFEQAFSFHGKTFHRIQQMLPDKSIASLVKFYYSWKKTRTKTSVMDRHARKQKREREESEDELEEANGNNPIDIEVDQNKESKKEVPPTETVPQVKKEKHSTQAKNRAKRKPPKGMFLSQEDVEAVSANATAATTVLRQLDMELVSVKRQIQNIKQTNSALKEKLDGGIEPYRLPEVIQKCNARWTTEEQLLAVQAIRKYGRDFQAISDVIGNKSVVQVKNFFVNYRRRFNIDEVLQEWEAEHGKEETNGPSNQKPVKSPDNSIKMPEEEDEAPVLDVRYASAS
T5 sequence (Q13547 whole entry): as the sequence (Q13547 whole entry, species assumed) above
T5 sequence (Q9P2R6 whole entry partner): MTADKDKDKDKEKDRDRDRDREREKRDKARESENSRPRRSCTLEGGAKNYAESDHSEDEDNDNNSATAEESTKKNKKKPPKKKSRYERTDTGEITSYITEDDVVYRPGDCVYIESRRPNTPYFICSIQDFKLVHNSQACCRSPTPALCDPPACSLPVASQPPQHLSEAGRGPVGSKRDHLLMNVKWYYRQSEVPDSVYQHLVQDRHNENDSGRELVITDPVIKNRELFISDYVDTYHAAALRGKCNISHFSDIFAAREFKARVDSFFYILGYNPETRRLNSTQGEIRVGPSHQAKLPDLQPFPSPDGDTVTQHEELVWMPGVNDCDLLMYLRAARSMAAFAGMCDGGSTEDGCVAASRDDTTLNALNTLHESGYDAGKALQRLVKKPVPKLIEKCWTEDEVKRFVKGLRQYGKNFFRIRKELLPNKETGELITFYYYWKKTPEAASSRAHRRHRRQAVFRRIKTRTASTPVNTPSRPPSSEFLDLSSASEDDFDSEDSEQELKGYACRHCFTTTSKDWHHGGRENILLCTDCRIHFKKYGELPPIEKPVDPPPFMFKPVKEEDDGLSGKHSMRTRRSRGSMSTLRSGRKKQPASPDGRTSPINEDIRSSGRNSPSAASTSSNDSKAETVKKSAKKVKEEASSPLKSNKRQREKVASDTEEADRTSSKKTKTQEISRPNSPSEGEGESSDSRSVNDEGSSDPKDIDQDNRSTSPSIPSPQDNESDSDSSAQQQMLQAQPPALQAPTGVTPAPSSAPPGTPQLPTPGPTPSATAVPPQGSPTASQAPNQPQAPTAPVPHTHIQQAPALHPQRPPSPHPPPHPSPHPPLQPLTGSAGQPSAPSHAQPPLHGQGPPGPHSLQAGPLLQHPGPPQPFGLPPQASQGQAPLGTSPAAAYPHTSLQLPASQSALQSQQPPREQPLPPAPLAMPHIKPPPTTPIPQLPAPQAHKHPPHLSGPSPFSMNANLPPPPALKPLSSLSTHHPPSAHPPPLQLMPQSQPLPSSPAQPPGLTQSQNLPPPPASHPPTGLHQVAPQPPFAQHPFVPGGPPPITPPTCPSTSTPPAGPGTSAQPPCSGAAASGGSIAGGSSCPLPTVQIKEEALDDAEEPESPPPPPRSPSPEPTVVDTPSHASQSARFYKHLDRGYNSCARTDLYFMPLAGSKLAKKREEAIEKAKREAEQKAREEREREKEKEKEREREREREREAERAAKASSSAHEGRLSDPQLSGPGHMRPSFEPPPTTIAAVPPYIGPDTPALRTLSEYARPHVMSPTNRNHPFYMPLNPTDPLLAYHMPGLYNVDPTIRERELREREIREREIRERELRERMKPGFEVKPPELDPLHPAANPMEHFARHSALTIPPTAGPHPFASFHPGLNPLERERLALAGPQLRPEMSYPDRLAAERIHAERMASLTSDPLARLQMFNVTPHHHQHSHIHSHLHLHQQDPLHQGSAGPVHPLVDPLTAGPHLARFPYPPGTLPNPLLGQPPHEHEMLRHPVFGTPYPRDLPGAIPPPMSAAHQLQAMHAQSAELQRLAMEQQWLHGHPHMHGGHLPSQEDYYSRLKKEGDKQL
T4 sequence (Q13547 whole entry): as the sequence (Q13547 whole entry, species assumed) above
T4 sequence (Q6PJG2 628-887 partner limits assumed): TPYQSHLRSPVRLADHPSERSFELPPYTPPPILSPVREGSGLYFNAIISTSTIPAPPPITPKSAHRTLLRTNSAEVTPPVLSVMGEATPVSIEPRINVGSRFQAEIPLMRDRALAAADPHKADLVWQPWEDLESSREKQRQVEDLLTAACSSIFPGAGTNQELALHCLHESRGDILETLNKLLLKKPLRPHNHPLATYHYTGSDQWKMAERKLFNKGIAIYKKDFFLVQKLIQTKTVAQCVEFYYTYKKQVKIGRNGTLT
T4 sequence (Q9H147 whole entry partner): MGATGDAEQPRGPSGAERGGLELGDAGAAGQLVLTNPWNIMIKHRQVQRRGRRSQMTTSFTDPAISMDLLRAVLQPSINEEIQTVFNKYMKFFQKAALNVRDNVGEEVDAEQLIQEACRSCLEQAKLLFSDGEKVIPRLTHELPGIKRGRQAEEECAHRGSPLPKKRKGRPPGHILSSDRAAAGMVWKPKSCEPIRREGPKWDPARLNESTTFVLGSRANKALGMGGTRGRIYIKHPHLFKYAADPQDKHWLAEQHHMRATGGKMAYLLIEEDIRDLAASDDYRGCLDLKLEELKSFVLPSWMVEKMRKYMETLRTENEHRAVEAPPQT
T3 sequence (Q13547 whole entry): as the sequence (Q13547 whole entry, species assumed) above
T3 sequence (Q8N108 whole entry partner): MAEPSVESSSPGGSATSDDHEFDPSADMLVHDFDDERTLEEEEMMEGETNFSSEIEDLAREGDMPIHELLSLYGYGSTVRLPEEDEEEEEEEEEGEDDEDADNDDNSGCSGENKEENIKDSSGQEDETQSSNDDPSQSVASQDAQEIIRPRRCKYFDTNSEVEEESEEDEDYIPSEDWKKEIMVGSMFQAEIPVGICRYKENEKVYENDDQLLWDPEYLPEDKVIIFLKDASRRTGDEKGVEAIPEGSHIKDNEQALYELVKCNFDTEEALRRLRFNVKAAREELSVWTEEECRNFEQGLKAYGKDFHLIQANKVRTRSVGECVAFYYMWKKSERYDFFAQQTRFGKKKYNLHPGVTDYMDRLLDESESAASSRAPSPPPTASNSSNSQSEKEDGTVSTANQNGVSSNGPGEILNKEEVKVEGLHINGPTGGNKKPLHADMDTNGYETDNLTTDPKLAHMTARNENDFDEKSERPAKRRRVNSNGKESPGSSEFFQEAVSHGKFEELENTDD
T6 sequence (O15379 whole entry, species assumed, one chain of several): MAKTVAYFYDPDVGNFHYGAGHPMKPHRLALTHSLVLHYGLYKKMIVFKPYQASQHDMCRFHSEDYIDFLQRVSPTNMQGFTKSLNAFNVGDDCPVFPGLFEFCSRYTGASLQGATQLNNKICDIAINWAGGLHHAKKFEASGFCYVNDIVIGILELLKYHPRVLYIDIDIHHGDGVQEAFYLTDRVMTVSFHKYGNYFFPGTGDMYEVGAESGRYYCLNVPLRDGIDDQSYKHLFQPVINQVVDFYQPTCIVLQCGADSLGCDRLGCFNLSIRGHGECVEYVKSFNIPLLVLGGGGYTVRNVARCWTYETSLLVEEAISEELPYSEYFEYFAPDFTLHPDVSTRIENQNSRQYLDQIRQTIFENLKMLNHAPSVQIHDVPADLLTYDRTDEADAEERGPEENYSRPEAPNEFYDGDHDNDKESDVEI

- IC50 [1, 3]: 633 nM
Molecule: CC(=O)N[C@@H](CO)C(=O)NCC(=O)N[C@@H](CCCNC(=N)N)C(=O)NCC(=O)N[C@@H](CCCCCC(=O)NO)C(=O)NCC(=O)NCC(=O)N[C@@H](CCCCN)C(N)=O [compound 13, H4 (1-8) K5Hd] (HELM PEPTIDE1{[ac].S.G.R.G.[O=C([C@H](CCCCCC(=O)[*:3])N[*:1])[*:2]].G.G.K.[am]}|CHEM1{[ON[*:1]]}$PEPTIDE1,CHEM1,6:R3-1:R1$$$V2.0)

- Initial Rate of HMR against histone peptides: Rate (% conversion min-1) [2]: 0.79 +/-0.075 % conversion min-1
Molecule: H3(23–29)K27Ac (KAARK(Ac)SA-NH2; UniProt P68431 24-30, looked up, fragment) [compound 4, acetyl-lysine-containing histone H3 tail substrate peptide, C-terminal amide]

- IC50 [1, 4]: 26200 nM
- IC50 (CoREST complex): 18300 nM
- IC50 (MIER1 complex): 20100 nM
- IC50 (MiDAC complex): 18100 nM
- IC50 (RERE complex): 28700 nM
- IC50 (SMRT complex (HDAC3)): 17400 nM
- IC50 (Sin3A complex): 71600 nM
Molecule: CC(=O)N[C@@H](C)C(=O)N[C@@H](C)C(=O)N[C@@H](C)C(=O)N[C@@H](CCCNC(=N)N)C(=O)N[C@@H](CCCCCC(=O)NO)C(=O)N[C@@H](CO)C(=O)N[C@@H](C)C(N)=O [compound 21, H3(23–29)K23A K27Hd] (HELM PEPTIDE1{[ac].A.A.A.R.[O=C([C@H](CCCCCC(=O)[*:3])N[*:1])[*:2]].S.A.[am]}|CHEM1{[ON[*:1]]}$PEPTIDE1,CHEM1,6:R3-1:R1$$$V2.0)

- Initial Rate of HMR against histone peptides: Rate (% conversion min-1) [2]: 0.18 +/- 0.009 % conversion min-1
Molecule: H3(1–7)K4Ac (ARTK(Ac)QTA-NH2; UniProt P68431 2-8, looked up, fragment) [compound 1, acetyl-lysine-containing histone H3 tail substrate peptide, C-terminal amide]

- Initial Rate of HMR against histone peptides: Rate (% conversion min-1) [2]: 0.40 +/- 0.013 % conversion min-1
Molecule: H3(6–12)K9Ac (TARK(Ac)STG-NH2; UniProt P68431 7-13, looked up, fragment) [compound 2, acetyl-lysine-containing histone H3 tail substrate peptide, C-terminal amide]

- Initial Rate of HMR against histone peptides: Rate (% conversion min-1) [2]: 0.10 +/- 0.027 % conversion min-1
Molecule: H3(11–17)K14Ac (TGGK(Ac)APR-NH2; UniProt P68431 12-18, looked up, fragment) [compound 3, acetyl-lysine-containing histone H3 tail substrate peptide, C-terminal amide]

- IC50 [1, 3]: 886 nM
Molecule: CC(=O)N[C@H](C(=O)NCC(=O)NCC(=O)N[C@@H](CCCCCC(=O)NO)C(=O)N[C@@H](C)C(=O)N1CCC[C@H]1C(=O)N[C@@H](CCCNC(=N)N)C(N)=O)[C@@H](C)O [compound 11, H3 (11-17) K14Hd] (HELM PEPTIDE1{[ac].T.G.G.[O=C([C@H](CCCCCC(=O)[*:3])N[*:1])[*:2]].A.P.R.[am]}|CHEM1{[ON[*:1]]}$PEPTIDE1,CHEM1,5:R3-1:R1$$$V2.0)

- IC50 [1, 4]: 172 nM
- IC50 (CoREST complex): 287 nM
- IC50 (MIER1 complex): 334 nM
- IC50 (MiDAC complex): 203 nM
- IC50 (RERE complex): 464 nM
- IC50 (SMRT complex (HDAC3)): 110 nM
Molecule: CC(=O)N[C@@H](CCCCN)C(=O)N[C@@H](C)C(=O)N[C@@H](C)C(=O)N[C@@H](C)C(=O)N[C@@H](CCCCCC(=O)NO)C(=O)N[C@@H](CO)C(=O)N[C@@H](C)C(N)=O [compound 22, H3(23–29)R26A K27Hd] (HELM PEPTIDE1{[ac].K.A.A.A.[O=C([C@H](CCCCCC(=O)[*:3])N[*:1])[*:2]].S.A.[am]}|CHEM1{[ON[*:1]]}$PEPTIDE1,CHEM1,6:R3-1:R1$$$V2.0)

- IC50 [1, 4]: 1150 nM
Molecule: CC(=O)N[C@@H](CCCCN)C(=O)NCC(=O)NCC(=O)N[C@@H](C)C(=O)N[C@@H](CCCCCC(=O)NO)C(=O)N[C@@H](CCCNC(=N)N)C(=O)N[C@@H](C)C(N)=O [compound 26, H4 (12-18) K16Hd H18A] (HELM PEPTIDE1{[ac].K.G.G.A.[O=C([C@H](CCCCCC(=O)[*:3])N[*:1])[*:2]].R.A.[am]}|CHEM1{[ON[*:1]]}$PEPTIDE1,CHEM1,6:R3-1:R1$$$V2.0)

- Initial Rate of HMR against histone peptides: Rate (% conversion min-1) [2]: 0.32 +/-0.065 % conversion min-1
Molecule: H4(1–8)K5Ac [compound 5]

- Initial Rate of HMR against histone peptides: Rate (% conversion min-1) [2]: 0.16 +/-0.016 % conversion min-1
Molecule: H4(4–10)K8Ac (GKGGK(Ac)GL-NH2; UniProt P62805 5-11, looked up, fragment) [compound 6, acetyl-lysine-containing histone H4 tail substrate peptide, C-terminal amide]

- Initial Rate of HMR against histone peptides: Rate (% conversion min-1) [2]: 0.03 +/-0.020 % conversion min-1
- Km ([2]; 30 min time course, table of initial rates): Unstable
Molecule: H4(9–15)K12Ac (GLGK(Ac)GGA-NH2; UniProt P62805 10-16, looked up, fragment) [compound 7, acetyl-lysine-containing histone H4 tail substrate peptide, C-terminal amide]

- Initial Rate of HMR against histone peptides: Rate (% conversion min-1) [2]: 1.08 +/-0.024 % conversion min-1
Molecule: H4(12–18)K16Ac (KGGAK(Ac)RH-NH2; UniProt P62805 13-19, looked up, fragment) [compound 8, acetyl-lysine-containing histone H4 tail substrate peptide, C-terminal amide]

- IC50 [1, 3]: 333 nM
Molecule: CC(=O)N[C@@H](C)C(=O)N[C@@H](CCCNC(=N)N)C(=O)N[C@H](C(=O)N[C@@H](CCCCCC(=O)NO)C(=O)N[C@@H](CCC(N)=O)C(=O)N[C@H](C(=O)N[C@@H](C)C(N)=O)[C@@H](C)O)[C@@H](C)O [compound 9, H3 (1-7) K4Hd] (HELM PEPTIDE1{[ac].A.R.T.[O=C([C@H](CCCCCC(=O)[*:3])N[*:1])[*:2]].Q.T.A.[am]}|CHEM1{[ON[*:1]]}$PEPTIDE1,CHEM1,5:R3-1:R1$$$V2.0)

- IC50 [1, 4]: 3250 nM
Molecule: CC(=O)N[C@@H](C)C(=O)NCC(=O)NCC(=O)N[C@@H](C)C(=O)N[C@@H](CCCCCC(=O)NO)C(=O)N[C@@H](CCCNC(=N)N)C(=O)N[C@@H](Cc1c[nH]cn1)C(N)=O [compound 24, H4 (12-18) K16Hd K12A] (HELM PEPTIDE1{[ac].A.G.G.A.[O=C([C@H](CCCCCC(=O)[*:3])N[*:1])[*:2]].R.H.[am]}|CHEM1{[ON[*:1]]}$PEPTIDE1,CHEM1,6:R3-1:R1$$$V2.0)

- IC50 [1, 3]: 431 nM
Molecule: CC(=O)NCC(=O)N[C@@H](CCCCN)C(=O)NCC(=O)NCC(=O)N[C@@H](CCCCCC(=O)NO)C(=O)NCC(=O)N[C@@H](CC(C)C)C(N)=O [compound 14, H4 (4-10) K8Hd] (HELM PEPTIDE1{[ac].G.K.G.G.[O=C([C@H](CCCCCC(=O)[*:3])N[*:1])[*:2]].G.L.[am]}|CHEM1{[ON[*:1]]}$PEPTIDE1,CHEM1,6:R3-1:R1$$$V2.0)

- IC50 [1, 4]: 429 nM
Molecule: CC(=O)N[C@@H](CCCCN)C(=O)NCC(=O)NCC(=O)N[C@@H](C)C(=O)N[C@@H](CCCCCC(=O)NO)C(=O)N[C@@H](C)C(=O)N[C@@H](Cc1c[nH]cn1)C(N)=O [compound 25, H4 (12-18) K16Hd R17A] (HELM PEPTIDE1{[ac].K.G.G.A.[O=C([C@H](CCCCCC(=O)[*:3])N[*:1])[*:2]].A.H.[am]}|CHEM1{[ON[*:1]]}$PEPTIDE1,CHEM1,6:R3-1:R1$$$V2.0)
